Results taken from US20060079512A1, “Dibenzodiazepinone analogues, processes for their production and their use as pharmaceuticals” (Ecopia BioSciences, Inc., priority 2003, published 2006).
Entries after “also recorded” stand apart in the source; their conditions may differ.

Legend:
C6 glioblastoma [1] = assay: In vivo efficacy in glioma model, first series (treatment started 24 hrs after inoculation); parameters: species or system Mus musculus nude mice
Description: The aim of this study was to test whether Compound 1 administered by the i.p. route prevents or delays tumor growth in C6 glioblastoma cell-bearing mice, and to determine an effective dosage regimen.
(§1) Animal experiments were performed according to ethical guidelines of animal experimentation (Charte du comité d'éthique du CNRS, juillet 2003) and the English guidelines for the welfare of animals in experimental neoplasia (WORKMAN, P., […], P., BALKWILL, F., et al. (1998). United Kingdom Coordinating Committee on Cancer Research (UKCCCR) Guidelines for the welfare of animals in experimental neoplasia (Second Edition, July 1997; British Journal of Cancer, 77:1-10). Any dead or apparently sick mice were promptly removed and replaced with healthy mice. Sick mice were euthanized upon removal from the cage. Animals were maintained in rooms under controlled conditions of temperature (23±2° C.), humidity (45±5%), photoperiodicity (12 hrs light/12 hrs dark) and air exchange. Animals were housed in polycarbonate cages (5/single cage) that were equipped to provide food and water. Animal bedding consisted of sterile wood shavings that were replaced every other day. Food was provided ad libitum, being placed in the metal lid on the top of the cage. Autoclaved tap water was provided ad libitum. Water bottles were equipped with rubber stoppers and sipper tubes. Water bottles were cleaned, sterilized and replaced once a week. Two different numbers engraved on two earrings identified the animals. Each cage was labeled with a specific code.
(§2) Tumor Cell Line: The C6 cell line was cloned from a rat glial tumor induced by N-nitrosomethyurea (NMU) according to Premont et al. (Premont J, Benda P, Jard S., [3H] norepinephrine binding by rat glial cells in culture. Lack of correlation between binding and adenylate cyclase activation. Biochim Biophys Acta. 1975 Feb. 13;381(2):368-76.) after series of alternate culture and animal passages. Cells were grown as adherent monolayers at 37° C. in a humidified atmosphere (5% CO2, 95% air). The culture medium was DMEM supplemented with 2 mM L-glutamine and 10% fetal bovine serum. For experimental use, tumor cells were detached from the culture flask by a 10 min treatment with trypsin-versen. The cells were counted in a hemocytometer and their viability assessed by 0.25% trypan blue exclusion.
(§3) Preparation of the Test Article: For the test article, the following procedure was followed for reconstitution (performed immediately preceding injection). The vehicle consisted of a mixture of benzyl alcohol (1.5%), ethanol (8.5%), propylene glycol (27%), PEG 400 (27%), dimethylacetamide (6%) and water (30%). The vehicle solution was first vortexed in order to obtain a homogeneous liquid. 0.6 mL of the vortexed vehicle solution was added to each vial containing the test article (Compound 1). Vials were mixed thoroughly by vortexing for 1 minute and inverted and shaken vigorously. Vials were mixed again prior to injection into each animal.
(§4) Animal Inoculation with tumor cells: Experiment started at day 0 (D0). On D0, mice received a superficial intramuscular injection of C6 tumor cells (5×10^5 cells) in 0.1 mL of DMEM complete medium into the upper right posterior leg.
In a first series of experiments, treatment started 24 hrs following inoculation of C6 cells. On the day of the treatment, each mouse was slowly injected with 100 μL of test or control articles by the i.p. route. For all groups, treatment was performed until the tumor volume of the saline-treated mice (group 1) reached approximately 3 cm^3 (around day 16). Mice of group 1 were treated daily with a saline isosmotic solution for 16 days. Mice of group 2 were treated daily with the vehicle solution for 16 days. Mice of group 3 were treated daily with 10 mg/kg of Compound 1 for 16 days. Mice of group 4 were treated every two days with 30 mg/kg of Compound 1 and received 8 treatments. […]

C6 glioblastoma [2] = assay: In vivo efficacy in glioma model, second series (treatment started at day 10); parameters: species or system Mus musculus nude mice; settings: for Tumor volume (mm^3) (mean ± SEM): Q1 × 5; for % Inhibition: Q1 × 5, vs saline
Description: as §1, §2, §3, §4
In a second series of experiments, treatment started at day 10 following inoculation of C6 cells when tumors became palpable (around 100 to 200 mm^3). Treatment was repeated daily for 5 consecutive days. On the day of the treatment, each mouse was slowly injected with 100 μL of Compound 1 by i.p. route. Mice of group 1 were treated daily with saline isosmotic solution. Mice of group 2 were treated daily with the vehicle solution. Mice of group 3 were treated daily with 20 mg/kg of Compound 1. Mice of group 4 were treated daily with 30 mg/kg of Compound 1. Mice were treated until the tumor volume of the saline-treated control mice (group 1) reached around 4 cm^3. Tumor volume was measured every second day until the end of the treatment using callipers. […] An asterisk in the P value column of Table 20 indicates a statistically significant value, while “ns” signifies not significant.

[3] = test system: rat glioblastoma tumor (C6) xenografts; assay: Antitumor efficacy against rat glioblastoma tumor (C6) xenografts; type: in vivo, female swiss nude mice; settings: intravenous, 75 mg/kg (qd5/2/qd5)
Excerpt: Antitumor efficacy of Compound 2 against rat glioblastoma tumor (C6) xenografts in female swiss nude mice was accomplished as described above.

SMILES | Tumor volume (mm^3) (mean ± SEM) (C6 glioblastoma [1]; 10 mg/kg i.p., Q1 × 16) | % Inhibition (C6 glioblastoma [1]; 10 mg/kg i.p., Q1 × 16, vs saline) [%] | Tumor volume (mm^3) (mean ± SEM) (C6 glioblastoma [1]; 30 mg/kg i.p., Q2 × 8) | % Inhibition (C6 glioblastoma [1]; 30 mg/kg i.p., Q2 × 8, vs saline) [%] | Tumor volume (mm^3) (mean ± SEM) (C6 glioblastoma [1]; 30 mg/kg i.p., Q3 × 6) | % Inhibition (C6 glioblastoma [1]; 30 mg/kg i.p., Q3 × 6, vs saline) [%] | mean value of the tumor volume of all treated groups (C6 glioblastoma [1]; 10-30 mg/kg i.p., compared to the saline group) | Tumor volume (mm^3) (mean ± SEM) (C6 glioblastoma [2]; 20 mg/kg i.p.) | % Inhibition (C6 glioblastoma [2]; 20 mg/kg i.p.) [%] | Tumor volume (mm^3) (mean ± SEM) (C6 glioblastoma [2]; 30 mg/kg i.p.) | % Inhibition (C6 glioblastoma [2]; 30 mg/kg i.p.) [%] | Histological analysis of tumor sections (C6 glioblastoma [2]; 20-30 mg/kg) | mean value of the tumor volume of all treated groups (C6 glioblastoma [2]; 20-30 mg/kg i.p., compared to the saline group) | Antitumor efficacy [3] | NOAEL (in vivo; CD-1 nu/nu, mouse, in vivo, ip) [mg/kg] | NOAEL (in vivo; CD-1 nu/nu, mouse, in vivo, iv) [mg/kg] | MTD (in vivo; CD-1 nu/nu, mouse, in vivo, ip, acute) [mg/kg] | weight losses (in vivo; for several days post-injection)
CC(C)=CCC/C(C)=C/CC/C(C)=C/CN1C(=O)c2cccc(O)c2Nc2c(O)cc(O)cc21 [Compound 1, 10-farnesyl-4,6,8-trihydroxy-5,10-dihydrodibenzo[b,e][1,4]diazepin-11-one] | 1,220.4 ± 283.46 mm^3 | 59.4 | 1,236.9 ± 233.99 mm^3 | 58.8 | 1,184.1 ± 221.45 mm^3 | 60.6 | significantly reduced | 1,721.5 ± 374.79 mm^3 | 60.5 | 1,131.6 ± 525.21 mm^3 | 74.1 | cell density of tumor treated with Compound 1 appears decreased; also recorded: cell density was decreased and the nuclei of remaining tumor cells appeared larger and pycnotic | significantly reduced | – | – | – | – | –
CC(C)=CCC/C(C)=C/CC/C(C)=C/CN1C(=O)c2cccc(O)c2N(C)c2c(O)cc(O)cc21 [Compound 2, 10-farnesyl-4,6,8-trihydroxy-5-methyl-5,10-dihydro-dibenzo[b,e][1,4]diazepin-11-one] | – | – | – | – | – | – | – | – | – | – | – | – | – | Significant efficacy | 30 | 75 | ≥ 50 | about 7%
